Where “and” joins values, the source holds several entries; their conditions need not be identical. Identical values can stand only once.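 Each compound was tested at five concentrations against cells in 96-well plates for 48 hours. Here, GI50 denotes the concentration required for 50% inhibition of growth. TGI denotes the concentration required for complete inhibition of growth.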
Experiments:
Experiment in all cases: inhibition of tumour cell growth, NCI panel, 48 h
OVCAR-3 ovarian = test system: OVCAR-3 ovarian
NCI/ADR-RES ovarian = test system: NCI/ADR-RES ovarian
HCT-15 colon = test system: HCT-15 colon
MDA-MB-435 = test system: MDA-MB-435
SK-MEL-2 melanoma = test system: SK-MEL-2 melanoma
HL-60(TB) leukemia = test system: HL-60(TB) leukemia
SK-MEL-5 melanoma = test system: SK-MEL-5 melanoma
786-0 renal = test system: 786-0 renal
TK-10 renal = test system: TK-10 renal
HS 578T breast = test system: HS 578T breast

SMILES	GI50 (OVCAR-3 ovarian) [µM]	TGI (OVCAR-3 ovarian)	GI50 (NCI/ADR-RES ovarian) [µM]	TGI (NCI/ADR-RES ovarian)	GI50 (HCT-15 colon) [µM]	TGI (HCT-15 colon)	GI50 (MDA-MB-435) [µM]	TGI (MDA-MB-435) [µM]	GI50 (SK-MEL-2 melanoma) [µM]	TGI (SK-MEL-2 melanoma)	GI50 (HL-60(TB) leukemia) [µM]	TGI (HL-60(TB) leukemia) [µM]	GI50 (SK-MEL-5 melanoma)	TGI (SK-MEL-5 melanoma)	GI50 (786-0 renal)	TGI (786-0 renal) [µM]	GI50 (TK-10 renal) [µM]	TGI (TK-10 renal) [µM]	GI50 (HS 578T breast) [µM]	TGI (HS 578T breast) [µM]
CC(CN1CCN(C)CC1)CN1c2ccccc2Sc2ccc(C(F)(F)F)cc21 (stereo not drawn)	2.04	4.16 µM	1.94	4.94 µM	1.81	3.95 µM	1.8	3.6	2.09	3.74 µM	1.92	4.1	1.61 µM	2.99 µM	1.66 µM	3.12	1.85	3.3	1.88	5.8
C=C(C)C(=O)OC1CC2=CC(CC3(C)OC3C3OC(=O)C(=C)C13)OC2=O (stereo not drawn)	–	25.4 µM	–	–	–	20.2 µM	–	30.2	–	26.4 µM	0.749	–	–	31 µM	–	20.5	–	15.3	–	44.3
CN(c1ccc(NC(=O)Nc2ccc(OC(F)(F)F)cc2)cc1)c1ccnc(Nc2cccc(S(N)(=O)=O)c2)n1	3.05	6.69 µM	12.6	25 µM	5.34	15.3 µM	3.15	6.68	4.57	9.7 µM	2.7	6.36	3.96 µM	7.56 µM	5.25 µM	12	6.21	13	4.14	17
CC(=O)Nc1ccccc1C=C1c2ccccc2-c2ccccc21	–	73 µM	–	66.7 µM	–	> 100 µM	–	> 100	–	> 100 µM	–	> 100	–	> 100 µM	–	45.2	–	> 100	–	> 100
C[C@H]1[C@H](C)CC[C@]2(C(=O)N3CCN(C)CC3)CC[C@]3(C)C(=CC[C@@H]4[C@@]5(C)C/C(=C/c6cccnc6)C(=O)C(C)(C)[C@@H]5CC[C@]43C)[C@H]12	0.969	2.36 µM	–	–	0.96	2.45 µM	1.13	2.49	1.53	3.08 µM	0.487	1.86	1.14 µM	2.54 µM	0.67 µM	2	1.54	3.04	1.43	5.4
COc1cc2c3c(n(CCCNCC(OC)OC)c(=O)c2cc1OC)-c1cc2c(cc1C3=O)OCO2	3.81	32.7 µM	0.338	29.3 µM	17.3	> 100 µM	10.4	97	> 49.1	> 73.5 µM	2.6	> 28.3	–	–	0.274 µM	8.75	11.9	47.8	10.4	> 29.3
COc1ccc(-c2cc(-c3ccccc3)nc(N3CCN(CCNc4ccnc5cc(Cl)ccc45)CC3)n2)cc1	1.89	3.69 µM	1.72	4.04 µM	1.4	3.14 µM	1.8	3.31	6.78	20.8 µM	–	–	1.62 µM	3 µM	1.52 µM	2.94	2.19	4.88	11.3	41.9
CC(C)(O)C1CCC(Nc2ccc3ncc(-c4cccc(C(F)(F)F)c4)n3n2)CC1 (stereo not drawn)	2.99	13.3 µM	2.7	19.5 µM	2.17	11.3 µM	2.06	> 100	2.13	4.82 µM	–	–	–	–	1.94 µM	4.64	2.62	14.1	1.59	4.67
CC(C)C[C@H](NC(=O)[C@H]1O[C@@H]1C(=O)O)C(=O)NCCc1ccc(O)cc1	> 100	> 100 µM	> 100	> 100 µM	> 100	> 100 µM	> 100	> 100	> 100	> 100 µM	–	–	> 100 µM	> 100 µM	> 100 µM	> 100	> 100	> 100	> 100	> 100
NC(=NC1CCCCCCC1)c1ccc(N2CCN(c3ccc(C(N)=NC4CCCCCCC4)cc3)CC2)cc1	1.73	13.8 µM	> 100	> 100 µM	31.8	> 100 µM	5.25	17.9	12	> 100 µM	16	> 100	1.72 µM	7.66 µM	18.9 µM	> 100	10.9	34.2	–	–
CCN(CCNc1ccc(C)c2sc3cc(Cl)ccc3c(=O)c12)CC(C)O (stereo not drawn)	3.62	14.3 µM	2.07	4.08 µM	2.33	5.85 µM	1.64	3.27	–	–	1.7	3.35	1.62 µM	2.98 µM	1.44 µM	2.75	1.51	2.91	2.23	4.35
C/C(=C\c1ccn(-c2ccc(N)c(F)c2)n1)[C@@H]1C[C@@H]2O[C@]2(C)CCC[C@H](C)[C@H](O)[C@@H](C)C(=O)C(C)(C)[C@@H](O)CC(=O)O1	0.00815	0.0747 µM	0.0943	> 50 µM	0.00913	> 50 µM	–	–	0.0321	> 50 µM	0.00873	0.323	0.00882 µM	6.54 µM	0.0253 µM	> 50	0.064	> 50	0.0108	–
O=C1CC(c2ccc3c(c2)OCO3)Nc2cc3c(cc21)OCO3 (stereo not drawn)	0.344	1.45 µM	0.372	83.4 µM	0.432	> 100 µM	–	–	0.747	> 100 µM	0.252	0.637	0.364 µM	1.94 µM	0.778 µM	36.3	2.77	> 100	0.512	93.6
COC(C(=O)C(O)C(C)O)C1Cc2cc3cc(OC4CC(OC(C)=O)C(OC5CC(O)C(OC)C(C)O5)C(C)O4)cc(O)c3c(O)c2C(=O)C1OC1CC(OC2CC(OC3CC(C)(O)C(OC(=O)C(C)C)C(C)O3)C(O)C(C)O2)C(O)C(C)O1 (stereo not drawn)	–	–	–	63.7 µM and > 100 µM	0.455	22.4 µM and 34.5 µM	–	0.21	0.0189	0.042 µM and 0.0104 µM	–	–	0.0094 µM and 0.00174 µM	–	0.0763 µM and 0.0168 µM	0.826	–	–	–	0.175
N#Cc1c(N)nc(N2CCOCC2)c(C#N)c1-c1ccc(Cl)cc1	27.8	> 100 µM	23.6	76.2 µM	26.9	> 100 µM	65.3	> 100	18.1	56.2 µM	–	–	27.4 µM	> 100 µM	70.7 µM	> 100	–	–	40.6	> 100
Cc1ccc(/C=C2/SC(Nc3nc(-c4nc(NC5=NC(=O)/C(=C\c6ccc(C)cc6)S5)sc4C)c(C)s3)=NC2=O)cc1	0.329	1.51 µM	0.435	> 12.7 µM	0.347	> 19.6 µM	–	–	36.3	> 50 µM	0.368	> 50	0.077 µM	–	0.487 µM	8.4	0.288	1.21	0.0926	1.14
c1cc(CCN2CCCCC2)ccn1	–	> 100 µM	–	> 100 µM	–	> 100 µM	–	> 100	–	> 100 µM	–	–	–	> 100 µM	–	> 100	–	> 100	–	> 100
CCCCCCCCCCC(O)[C@H]1CCC(C2CC[C@H]([C@H](O)CCCCCCCCCCC(O)CC3=CC(C)OC3=O)O2)O1 (stereo partly drawn)	0.674	4.01 µM and 3.32 µM	–	2.11 µM	1.23	3.7 µM and 5.88 µM	–	–	1.76	3.43 µM and 4.72 µM	–	6.37	< 0.01 µM	2.47 µM and 1.74 µM	2.68 µM	7.1	4.05	–	–	3.5
N#Cc1cccc(C(=O)Nc2cccc(NC(=O)c3cccc(C#N)c3)c2)c1	–	–	95.7	> 100 µM	73.9	> 100 µM	> 100	> 100	> 100	> 100 µM	–	–	29.2 µM	> 100 µM	33.4 µM	> 100	52.5	> 100	39	> 100
Cc1nn(-c2ccccc2)c2c1CC(=O)Nc1ccccc1-2	0.0805	2.92 µM and 0.552 µM	–	3.73 µM	0.145	> 100 µM	–	0.602	0.387	> 100 µM	0.0203	–	0.0879 µM	45.2 µM	0.57 µM	> 100	–	92.2	–	–
Cc1ccc(NC(=O)c2cc3ccccc3c(N=Nc3ccccc3O)c2O)c(C)c1	–	3.98 µM	–	5.71 µM	–	11.1 µM	–	–	–	14.9 µM	–	4.09	–	3.35 µM	–	11.8	–	24.5	–	8.29
